Results from US7795303B2, “Active agents combination exhibiting insecticidal and acaricide properties” (Bayer CropScience AG, priority 2003, dated 2010).

How the values were obtained:
[1] = test system: larvae of the mustard beetle (Phaedon cochleariae); assay: Phaedon larvae test; assay type: in vivo; settings: 100 ppm, cabbage leaves dipped
Method: (§1) To produce a suitable preparation of active compound, 1 part by weight of active compound is mixed with the stated amounts of solvent and emulsifier, and the concentrate is diluted with emulsifier-containing water to the desired concentration.
Cabbage leaves (Brassica oleracea) are treated by being dipped into the preparation of active compound of the desired concentration and are populated with larvae of the mustard beetle (Phaedon cochleariae) while the leaves are still moist.
After the desired period of time, the kill in % is determined. 100% means that all beetle larvae have been killed; 0% means that none of the beetle larvae have been killed. The kill rates determined are calculated using the Colby formula (see page 32).

[2] = test system: caterpillars of the army worm (Spodoptera frugiperda); assay: Spodoptera frugiperda test; assay type: in vivo; settings: 100 ppm, cabbage leaves dipped
Method: as §1
Cabbage leaves (Brassica oleracea) are treated by being dipped into the preparation of active compound of the desired concentration and are populated with caterpillars of the army worm (Spodoptera frugiperda) while the leaves are still moist.
After the desired period of time, the kill in % is determined. 100% means that all caterpillars have been killed; 0% means that none of the caterpillars have been killed. The kill rates determined are calculated using the Colby formula (see page 32).

## Cc1cc(C)c(C2=C(OC(=O)CC(C)(C)C)C3(CCCC3)OC2=O)c(C)c1 [Compound (I-b-1)]
[1]
  Kill rate in % after 6 d: 30%
[2]
  Kill rate in % after 6 d: 5%
